We go through 9 compounds from US5804599A, “Interleukin-1 production inhibiting compound” (Kyowa Hakko Kogyo Co., Ltd., priority 1994, dated 1998).

For data set [1], the system named is Staphylococcus aureus ATCC 6538P. As to the kind of experiment: Antibacterial activity (MIC), agar dilution method. Type of data set: cell-based. Conditions: ATCC6538P, pH 7.0. As for the experimental part:
(§1) Antibacterial activity was determined by an agar dilution method using a medium (pH 7.0) comprising 3 g/l bactotrypton (made by Difco Laboratories), 3 g/l meat extract, 1 g/l yeast extract, 1 g/l glucose and 16 g/l agar.

Data set [2] deals with Enterococcus faecium ATCC 10541. In words: Antibacterial activity (MIC), agar dilution method. Type of data set: cell-based. The note with it: ATCC10541, pH 7.0. On the procedure: as §1
For data set [3], the system named is Bacillus subtilis No. 10707. In words: Antibacterial activity (MIC), agar dilution method. The class given is cell-based. The note with it: pH 7.0. As for the experimental part:
as §1

Another data set concerns IL-1 β. As to the kind of experiment: Inhibiting activity of the production of IL-1 (LPS-stimulated, PMA-differentiated THP-1 cells, ELISA). Type of data set: cell-based. The note with it: Homo sapiens, read-out: IC50 (50% inhibitory concentration) of IL-1 production. On the procedure:
Inhibiting Activity of the production of IL-1
With respect to Compound (I) of the present invention, the inhibiting activity of production of IL-1 β derived from THP-1 cells (ATCC No. TIB 202) of a human monocyte was examined. The amount of IL-1 β was determined by the ELISA method.
The THP-1 cells were suspended in an RPMI 1640 culture solution comprising 10% inactivated fetal bovine serum at a concentration of 1×10^5 cells/ml. The suspension was charged in a 24-well plate at a volume of 1 ml/well. PMA (phorbol 12-myristate 13-acetate, made by Wako Pure Chemical Industries, Ltd.; final concentration 30 nM) was added thereto, and the mixture was cultured in a mixed gas of 5% CO2 and 95% air at 37° C. for 65 hours. The cells were differentiated in a macrophage form.
The cultivation plate was gently washed with a serum-free RPMI 1640 culture solution to remove the cells not adhered thereto, and the residue was cultured for 4 hours in a serum-free RPMI 1640 culture solution (1 ml/well) to which LPS (lipopolysaccharide, made by Difco Laboratories; a final concentration 25 μg/ml) and a compound to be tested were added simultaneously.
After the completion of the cultivation, the amount of IL-1 β which was released in the cultivated supernatant was determined using an IL-1 β determination kit (made by Amersham Corp.).
Percent inhibition of IL-1 production was calculated using the following equation to obtain IC50 (50% inhibitory concentration).
Percent inhibition of IL-1 production (%) =[(A-B)/(A-C)]×100
A: amount of IL-1 produced when only LPS is added
B: amount of IL-1 produced when LPS and the compound to be tested are added
C: amount of IL-1 when LPS is not added

A further data set deals with bacteria. The note with it: in words; cited from earlier work.
Where [4] appears, read: IL-1 β release from THP-1 cells, LPS 25 μg/ml, 4 hours, serum-free RPMI 1640.

≈ marks a conversion by molar mass, not a printed value. Like-named read-outs stand apart in the source and are kept apart here.

`CCC(C)/C=C/C=C/C=C/C(=O)NC1=CC(O)(/C=C/C=C/C=C/C(=O)NC2=C(O)CCC2=O)C2OC2C1=O` (stereo not drawn) [EI-1511-5]: the figures for the Solubility entry in the data set “Solubility” (in acetone), in “Solubility” (in dimethyl sulfoxide) and in the data set “Solubility” (in methanol) were “easily soluble”, “easily soluble” and “soluble”, respectively. Moreover, the MIC in data set [1], in data set [2] and in data set [3] was 20 µg/mL (≈ 38.4 µM) in each case. Besides, in the data set on IL-1 β (THP-1, 4 h), the IC50 amounted to 3.6 µM.
Turning to `CC(C)/C=C/C=C/C=C/C(=O)NC1=C[C@@](O)(/C=C/C=C/C=C/C(=O)NC2=C(O)CCC2=O)C2OC2C1=O` (stereo partly drawn) [Manumycin G], the antibacterial activity entry with bacteria is “known to exhibit antibacterial activity”.
For `CC(C)C/C=C/C=C/C=C/C(=O)NC1=CC(O)(/C=C/C=C/C=C/C(=O)NC2=C(O)CCC2=O)C2OC2C1=O` (stereo not drawn) [U-56407], the antibacterial activity result in the data set with bacteria is “known to exhibit antibacterial activity”.
In the case of `CCCCC(C)/C=C(C)/C=C/C(=O)NC1=CC(O)(/C=C/C=C/C=C/C(=O)NC2=C(O)CCC2=O)C2OC2C1=O` (stereo not drawn) [Manumycin C], the antibacterial activity entry with bacteria was “known to exhibit antibacterial activity”.
As for `O=C(/C=C/C=C/C1CCCCC1)NC1=CC(O)(/C=C/C=C/C=C/C(=O)NC2=C(O)CCC2=O)C2OC2C1=O` (stereo not drawn) [Alisamycin], the antibacterial activity result with bacteria is “known to exhibit antibacterial activity”.
Consider `CCCCC(C)/C=C/C(=O)NC1=CC(O)(/C=C/C=C/C=C/C(=O)NC2=C(O)CCC2=O)C2OC2C1=O` (stereo not drawn) [EI-1625-2], for which the values for the MIC in data set [1], in data set [2] and in data set [3] were 10 µg/mL (≈ 20.1 µM), 20 µg/mL (≈ 40.3 µM) and 5 µg/mL (≈ 10.1 µM), respectively. Besides, the IC50 in the data set with IL-1 β (setting [4]) worked out at 5.4 µM.
With `CC(C)C/C=C/C=C/C(=O)NC1=CC(O)(/C=C/C=C/C=C/C(=O)NC2=C(O)CCC2=O)C2OC2C1=O` (stereo not drawn) [EI-1511-3], the Solubility entry in the data set “Solubility” (in acetone) is given as “easily soluble”; in the data set “Solubility” (in dimethyl sulfoxide), “easily soluble”; in the data set “Solubility” (in methanol), “soluble”. Moreover, the MIC in data set [1], in data set [2] and in data set [3] was 20 µg/mL (≈ 40.4 µM) throughout. The IC50 in the data set with IL-1 β (setting [4]) stood at 5.4 µM.
Turning to `CCCCC(C)/C=C(\C)C(=O)NC1=CC(O)(/C=C/C=C/C=C/C(=O)NC2=C(O)CCC2=O)C2OC2C1=O` (stereo not drawn) [Manumycin B], in the data set on bacteria, the antibacterial activity result is recorded as “known to exhibit antibacterial activity”.
As for `CCCC[C@@H](C)/C=C(C)/C=C(\C)C(=O)NC1=C[C@@](O)(/C=C/C=C/C=C/C(=O)NC2=C(O)CCC2=O)[C@@H]2O[C@@H]2C1=O` [Manumycin A], the antibacterial activity entry in the data set with bacteria is listed as “known to exhibit antibacterial activity”.
